Earlier results, collected in patent US20100076037A1, “Methods of Treating Neuropathic Pain with Agonists of PPAR-gamma” (priority 2006, published 2010).

Assays:
[1] = cited from earlier work
rats = details: intrathecal; cited from earlier work
PPARγ = PPARγ (Homo sapiens, UniProt P37231); details: ECV304 cell line; cited from earlier work
[2] = 3 or 30 mg/kg; cited from earlier work
[3] = test system: rats subjected to spinal cord injury; details: given before pioglitazone; cited from earlier work
PPARalpha [4] = biological target: T1, PPARalpha (Homo sapiens, UniProt Q07869); details: first value of the pair given as α/γ; read-out: EC50 for PPARalpha agonism; cited from earlier work
T1 sequence (Q07869 1-468): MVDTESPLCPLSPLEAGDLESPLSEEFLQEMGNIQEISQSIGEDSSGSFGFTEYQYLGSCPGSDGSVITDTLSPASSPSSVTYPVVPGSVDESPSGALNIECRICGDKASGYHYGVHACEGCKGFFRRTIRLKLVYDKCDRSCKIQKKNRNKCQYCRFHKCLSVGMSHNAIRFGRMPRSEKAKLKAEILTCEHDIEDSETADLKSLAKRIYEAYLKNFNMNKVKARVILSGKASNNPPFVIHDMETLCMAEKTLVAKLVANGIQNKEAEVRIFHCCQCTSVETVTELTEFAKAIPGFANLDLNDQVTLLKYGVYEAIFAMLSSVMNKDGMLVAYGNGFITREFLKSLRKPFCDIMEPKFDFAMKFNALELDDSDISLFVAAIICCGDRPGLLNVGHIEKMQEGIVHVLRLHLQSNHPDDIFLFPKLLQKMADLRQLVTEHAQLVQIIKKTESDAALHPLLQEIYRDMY

mouse (m)PPARgamma = biological target: T2, mouse (m)PPARgamma (Mus musculus, UniProt P37238); details: U2 OS cells, mPPARgamma, cited from earlier work
T2 construct: expressed in transfected cells; host or cells: U2 OS
T2 sequence (P37238 whole entry): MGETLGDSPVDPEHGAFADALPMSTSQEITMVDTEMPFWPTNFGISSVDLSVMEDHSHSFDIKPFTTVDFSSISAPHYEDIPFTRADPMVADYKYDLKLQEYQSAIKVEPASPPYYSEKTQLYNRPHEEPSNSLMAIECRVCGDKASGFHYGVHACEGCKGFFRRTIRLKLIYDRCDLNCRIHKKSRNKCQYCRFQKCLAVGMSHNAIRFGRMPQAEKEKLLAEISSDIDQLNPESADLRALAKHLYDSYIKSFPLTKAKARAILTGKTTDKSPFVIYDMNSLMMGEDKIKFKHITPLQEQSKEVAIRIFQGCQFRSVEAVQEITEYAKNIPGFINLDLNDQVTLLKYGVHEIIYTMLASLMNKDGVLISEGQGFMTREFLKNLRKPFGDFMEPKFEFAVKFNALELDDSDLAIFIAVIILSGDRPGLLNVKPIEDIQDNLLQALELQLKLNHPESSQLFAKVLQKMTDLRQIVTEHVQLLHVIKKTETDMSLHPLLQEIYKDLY

PPARalpha [5] = biological target: T1, PPARalpha; details: U2 OS cells; cited from earlier work
P-glycoprotein = biological target: T3, P-glycoprotein (Homo sapiens, UniProt P08183); details: cited from earlier work
T3 construct: host or cells: Caco2 and MDCK-MDR1 monolayers (tie to the P-gp statement is grammatically loose)
T3 sequence (P08183 whole entry): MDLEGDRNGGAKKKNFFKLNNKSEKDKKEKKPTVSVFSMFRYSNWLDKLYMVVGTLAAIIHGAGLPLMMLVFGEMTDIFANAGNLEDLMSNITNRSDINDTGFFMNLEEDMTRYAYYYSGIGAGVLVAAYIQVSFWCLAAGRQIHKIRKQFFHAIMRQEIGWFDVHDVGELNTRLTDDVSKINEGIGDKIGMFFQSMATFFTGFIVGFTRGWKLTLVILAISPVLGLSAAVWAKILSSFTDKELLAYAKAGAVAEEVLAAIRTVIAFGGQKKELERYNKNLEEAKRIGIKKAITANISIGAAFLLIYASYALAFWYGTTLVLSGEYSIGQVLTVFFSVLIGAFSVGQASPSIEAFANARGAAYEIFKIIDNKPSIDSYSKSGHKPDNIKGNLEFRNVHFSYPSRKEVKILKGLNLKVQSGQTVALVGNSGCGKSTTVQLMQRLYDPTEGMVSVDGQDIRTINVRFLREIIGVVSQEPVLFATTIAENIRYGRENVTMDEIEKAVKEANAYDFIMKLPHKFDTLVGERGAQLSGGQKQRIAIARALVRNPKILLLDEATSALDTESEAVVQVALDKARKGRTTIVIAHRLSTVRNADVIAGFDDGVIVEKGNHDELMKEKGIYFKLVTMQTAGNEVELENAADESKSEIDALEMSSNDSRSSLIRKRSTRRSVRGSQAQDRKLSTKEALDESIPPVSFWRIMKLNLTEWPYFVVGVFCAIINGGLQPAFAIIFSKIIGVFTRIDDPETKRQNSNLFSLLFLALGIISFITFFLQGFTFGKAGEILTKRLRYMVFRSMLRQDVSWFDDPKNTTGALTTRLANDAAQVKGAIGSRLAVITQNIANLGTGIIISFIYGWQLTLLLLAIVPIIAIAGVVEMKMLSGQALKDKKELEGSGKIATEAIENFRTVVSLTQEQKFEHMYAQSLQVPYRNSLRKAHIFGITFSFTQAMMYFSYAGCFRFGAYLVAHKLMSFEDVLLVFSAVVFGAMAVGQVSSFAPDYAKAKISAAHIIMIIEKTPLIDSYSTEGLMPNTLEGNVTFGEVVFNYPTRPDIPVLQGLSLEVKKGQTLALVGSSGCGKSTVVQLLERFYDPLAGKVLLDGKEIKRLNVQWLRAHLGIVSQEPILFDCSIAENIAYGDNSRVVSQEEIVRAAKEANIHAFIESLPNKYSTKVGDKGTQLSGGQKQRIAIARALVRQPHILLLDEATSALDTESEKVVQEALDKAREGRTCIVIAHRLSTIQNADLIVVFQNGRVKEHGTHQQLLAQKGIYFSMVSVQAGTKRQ

[6] = test system: multidrug resistance protein 2; details: Caco-2; cited from earlier work
mPPARalpha = mPPARalpha (Mus musculus, UniProt P23204); details: read-out: EC50 reporter gene assay, U2 OS cells; cited from earlier work
Sequence of mPPARalpha (P23204 whole entry): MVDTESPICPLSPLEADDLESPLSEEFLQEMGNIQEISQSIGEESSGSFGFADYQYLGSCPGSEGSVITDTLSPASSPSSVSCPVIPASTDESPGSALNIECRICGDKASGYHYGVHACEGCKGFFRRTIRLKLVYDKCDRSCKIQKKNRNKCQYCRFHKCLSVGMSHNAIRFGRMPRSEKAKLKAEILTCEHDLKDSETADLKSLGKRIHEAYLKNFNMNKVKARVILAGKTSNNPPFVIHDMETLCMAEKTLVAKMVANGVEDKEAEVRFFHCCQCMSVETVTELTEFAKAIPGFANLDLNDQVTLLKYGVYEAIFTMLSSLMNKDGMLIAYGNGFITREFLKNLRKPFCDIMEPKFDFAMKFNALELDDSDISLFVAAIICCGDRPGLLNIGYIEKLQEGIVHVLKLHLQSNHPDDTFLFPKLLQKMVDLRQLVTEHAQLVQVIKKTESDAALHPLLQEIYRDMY

diabetic patients = details: human, in vivo; cited from earlier work

Sequence of PPARγ (P37231 whole entry, species assumed): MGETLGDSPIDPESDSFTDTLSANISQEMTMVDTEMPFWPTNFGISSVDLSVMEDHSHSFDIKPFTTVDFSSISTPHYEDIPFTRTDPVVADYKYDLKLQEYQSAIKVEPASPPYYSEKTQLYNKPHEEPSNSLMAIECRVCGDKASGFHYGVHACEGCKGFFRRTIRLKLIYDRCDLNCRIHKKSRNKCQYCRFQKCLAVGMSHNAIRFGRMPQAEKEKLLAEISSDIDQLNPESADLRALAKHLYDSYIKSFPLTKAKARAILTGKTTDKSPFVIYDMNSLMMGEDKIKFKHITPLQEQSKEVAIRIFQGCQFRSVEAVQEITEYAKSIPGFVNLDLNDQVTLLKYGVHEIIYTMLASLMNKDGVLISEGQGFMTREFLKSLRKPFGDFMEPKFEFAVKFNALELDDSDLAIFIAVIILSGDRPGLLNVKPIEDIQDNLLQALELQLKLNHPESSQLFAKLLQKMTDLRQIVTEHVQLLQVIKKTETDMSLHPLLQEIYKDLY

Compound: CCCCC/C=C/C=C1/C(=O)C=C[C@@H]1C/C=C\CCCC(=O)O [15dPGJ2]
- mechanical allodynia (von Frey) ([1]; intrathecal, 7 days post-SNI): dose-dependently reduced
- pain behavior (rats): reduction in pain behavior

Compound: CC(C)(c1ccc(OCC2CO2)cc1)c1ccc(OCC2CO2)cc1 (stereo not drawn) [BADGE, Bisphenol A diglycidyl ether]
- effect on the observed anti-allodynic effects of rosiglitazone and 15dPGJ2 ([1]; in vivo): reversed
- PPARγ activity (PPARγ): has PPARγ agonist activity

Compound: O=C(Nc1ccccc1)c1cc([N+](=O)[O-])ccc1Cl [GW9662, 2-chloro-5-nitro-N-phenylbenzamide]
- threshold (in g) [2]: increased
- effect of pretreatment on pioglitazone-induced motor function recovery [3]: completely abolished

Compound: Cc1oc(-c2ccccc2)nc1CCOc1ccc(CC2C(=O)NOC2=O)cc1 (stereo not drawn) [JTT-501]
- EC50 (PPARalpha [4]): 0.4 µM

Compound: CCO[C@@H](Cc1ccc(OCCN2c3ccccc3Oc3ccccc32)cc1)C(=O)O [NNC-61-0029]
- EC50 (PPARalpha [4]): 0.6 µM

Compound: Cc1cccc(Nc2cc(Cl)nc(SCC(=O)O)n2)c1C [WY-14643]
- EC50 reporter gene assay (mouse (m)PPARgamma): no activity
- EC50 reporter gene assay (PPARalpha [5]): no activity

Compound: CCOC(Cc1ccc(OCCc2ccc(OS(C)(=O)=O)cc2)cc1)C(=O)OC1OC(C(=O)O)C(O)C(O)C1O (stereo not drawn) [acylglucuronide metabolite]
- substrate of P-glycoprotein (P-glycoprotein): not substrates of P-glycoprotein
- transport in Caco2 and MDCK-MDR1 monolayers [6]: apparently transported by multidrug resistance protein 2

Compound: CC(C)(Oc1ccc(CCNC(=O)c2ccc(Cl)cc2)cc1)C(=O)O [bezafibrate]
- EC50 (mouse (m)PPARgamma; read-out: EC50 reporter gene assay): 23 µM
- EC50 (mPPARalpha): 24 µM

Compound: CCc1ccc(CCOc2ccc(CC3SC(=O)NC3=O)cc2)nc1 (stereo not drawn) [pioglitazone]
- rates of edema (diabetic patients): 4.2%
